Measurements reported in US9273184B1, “Synthesis of highly fluorinated amines for use in polymers and biomaterials” (University of Southern California, priority 2009, dated 2016).
Structures can show the parent of a compound that is named as a salt.

Assay: 31P NMR evidence for guanidinium-phosphonate binding (addition of amphiphile or comparator to MePO3K2)
Details: for change of the 31P signal of the phosphonate on addition (shift and broadening, in words): FIGS. 11A-D
Source text: Guanidinium binds to phosphonate through a salt bridge that is buttressed by a bidentate hydrogen bonding system FIG. 10. This interaction is generally stable within a wide range of pH values. Thus, guanidinium-functionalized amphiphiles (29a-c) should form complexes with phosphonates in aqueous buffer. We show here the interaction between amphipile (29a) and MePO3K2 using ^31P NMR, FIGS. 11A-D, which has been used as a probe for phosphate binding to several types of cations. […] This broadening effect is more pronounced as additional compound (29a) is added. The change in the shape of the peak is consistent with reduced tumbling associated with increased size or reversible association of compound (29a) with MePO3K2, which indicates complexation between the guanidinium species and the phosphonate group. […] Thus, guanidinium compound (29a) is not merely protonating the phosphonate in FIG. 11A. […] Urea is structurally similar to guanidinium and can potentially complex a phosphonate in a manner similar to compound (29a) (FIG. 10). In the presence of HCl, similar chemical behavior is expected when MePO3K2 is treated with urea as when it is treated with compound 29.

Cl [HCl]
change of the 31P signal of the phosphonate on addition (shift and broadening, in words): remains sharp and shifts downfield
31P Chemical shift of MePO3K2 (MePO3K2 + 1 eq of additive): 27.8 ppm
31P Half-Height Width of MePO3K2 (MePO3K2 + 1 eq of additive): 3.8 Hz
31P Chemical shift of MePO3K2 (MePO3K2 + 2 eq of additive): 29.9 ppm
31P Half-Height Width of MePO3K2 (MePO3K2 + 2 eq of additive): 3.4 Hz
31P Chemical shift of MePO3K2 (MePO3K2 + 3 eq of additive): 30.4 ppm
31P Half-Height Width of MePO3K2 (MePO3K2 + 3 eq of additive): 3.4 Hz
31P chemical shift of protonated MePO3H2 (in the presence of HCl, FIG. 11B, equivalents not given): 30.4 ppm

NC(N)=O [urea, Urea]
change of the 31P signal of the phosphonate on addition (shift and broadening, in words): do not broaden
31P Chemical shift of MePO3K2 (MePO3K2 + 1 eq urea + 2 eq HCl): 27.6 ppm
31P Half-Height Width of MePO3K2 (MePO3K2 + 1 eq urea + 2 eq HCl): 3.3 Hz
31P Chemical shift of MePO3K2 (MePO3K2 + 4 eq urea + 2 eq HCl): 27.7 ppm
31P Half-Height Width of MePO3K2 (MePO3K2 + 4 eq urea + 2 eq HCl): 3.6 Hz

Cl.N [NH4Cl]
change of the 31P signal of the phosphonate on addition (shift and broadening, in words): small downfield shift like HCl, but did not broaden the signal
31P Chemical shift of MePO3K2 (MePO3K2 + 1 eq of additive): 21.8 ppm
31P Half-Height Width of MePO3K2 (MePO3K2 + 1 eq of additive): 3.6 Hz
31P Chemical shift of MePO3K2 (MePO3K2 + 4 eq of additive): 22.1 ppm
31P Half-Height Width of MePO3K2 (MePO3K2 + 4 eq of additive): 4.2 Hz
